Values quoted from earlier work, collected in patent US20070212431A1, “Cream for treatment of skin injured by the sun” (priority 2001, published 2007).

Key:
photodamaged skin = settings: controlled studies (Q-10); open uncontrolled clinical study (lipoic acid)
[1] = applied to the skin in ethyl alcohol solution, after penetrating the horny layer
[2] = topical application to the skin

SMILES	effect on photodamaged skin (photodamaged skin)	share reaching the dermis [1]	share reaching the living part of epidermis [1]	time until found in the dermis [2]
COC1=C(OC)C(=O)C(C/C=C(\C)CC/C=C(\C)CC/C=C(\C)CC/C=C(\C)CC/C=C(\C)CC/C=C(\C)CC/C=C(\C)CC/C=C(\C)CC/C=C(\C)CCC=C(C)C)=C(C)C1=O [Q-10, coenzyme Q-10]	to some extent has been shown to have an effect	~2%	about 20%	–
O=C(O)CCCCC1CCSS1 (racemic) [lipoic acid, d,l-α-lipoic acid]	shown to have an effect on photodamaged skin to a certain extent	–	–	≤ 4 h
